Reference: patent US5656660A, “Compositions and methods for treating mast-cell mediated conditions” (Arris Pharmaceutical Corporation, priority 1995, dated 1997)

Target: tryptase
Assay: In vitro tryptase inhibition assay
Format: biochemical, human
Settings: tosyl-Gly-Pro-Lys-p-nitroanilide 0.5 mM; 1 h preincubation at room temperature; pH 8.2
Experimental: The compounds to be assayed (approximately 1 mg) were dissolved in 200 μL dimethylsulfoxide (DMSO) and diluted 1:10 into buffer containing 50 millimolar (mM) Tris-HCl (pH 8.2), 100 mM sodium chloride, and 0.05% polyoxyethylenesorbitan monolaurate (Tween-20°, available from Sigma, St. Louis, Mo.). Seven additional threefold dilutions were made from the initial dilution into the same buffer supplemented with 10% DMSO. Aliquots (50 microliters, μL) from each of the eight dilutions in the series were transferred to individual wells in a 96-well U-bottom microtiter plate. […] The tryptase solution was prepared by placing 60 μg/mL of tryptase into solution with 10 mM MES (2-[N-Morpholino]ethane sulfonic acid) containing 2 mM CaCl2, 20% glycerol and 50 μg/mL heparin. The enzyme reaction was initiated with the addition of the synthetic tripeptide substrate, tosyl-Gly-Pro-Lys-p-nitroanilide (available from Sigma, 25 μL; 0.5 mM final concentration). […] Initial velocity measurements calculated from the progress curves by a kinetic analysis program (BatchKi; Petr Kuzmic, University of Wisconsin, Madison, Wis.) were used to determine apparent inhibition constants for each inhibitor.

In order of rising Ki:
1. NCc1ccc(CNC(=O)CNC(=O)OCc2ccc(COC(=O)NCC(=O)NCc3ccc(CN)cc3)cc2)cc1 [Example 1, Bis(p-xylylenediamineglycine)-1,4-benzenedimethanol dicarbamate]  0.56 nM
2. CN(CC(=O)NCc1ccc(CN)cc1)C(=O)OCc1ccc(COC(=O)N(C)CC(=O)NCc2ccc(CN)cc2)cc1 [Example 18, Bis(p-xylylenediaminesarcosine)-1,4-benzenedimethanol dicarbamate]  5 nM
3. NCc1ccc(C(=O)NCCCNC(=O)OCc2ccc(COC(=O)NCCCNC(=O)c3ccc(CN)cc3)cc2)cc1 [Example 19, N,N'-Bis(4-aminomethylbenzamidopropylene)-1,4-benzenedimethanol dicarbamate]  5 nM
4. NCc1ccc(CNC(=O)CCCC(=O)NCc2ccc(CNC(=O)CCCC(=O)NCc3ccc(CN)cc3)cc2)cc1 [Example 10]  8.8 nM
5. N=C(N)Nc1ccc(CNC(=O)CCNC(=O)OCc2ccc(COC(=O)NCCC(=O)NCc3ccc(NC(=N)N)cc3)cc2)cc1 [Example 3]  9 nM
6. NCc1ccc(CNC(=O)CCCNC(=O)c2ccc(C(=O)NCCCC(=O)NCc3ccc(CN)cc3)cc2)cc1 [Example 15, N,N'-Bis(N-(4-aminomethylbenzyl)butyramido)terephthalamide]  11 nM
7. CN(Cc1ccc(CN(C)C(=O)CCCC(=O)NCc2ccc(CN)cc2)cc1)C(=O)CCCC(=O)NCc1ccc(CN)cc1 [Example 17, N,N'-Bis(N-(4-aminomethylbenzyl)glutaramido)-N,N'-bis(methyl)-p-xylylene diamide]  14 nM
8. C[C@H](NC(=O)OCc1ccc(COC(=O)N[C@@H](C)C(=O)NCc2ccc(CN)cc2)cc1)C(=O)NCc1ccc(CN)cc1 [Example 13, Bis(p-xylylenediamine-L-alanine)-1,4-benzenedimethanol dicarbamate]  31 nM
9. NCc1ccc(C(=O)NCCCC(=O)NCc2ccc(CNC(=O)CCCNC(=O)c3ccc(CN)cc3)cc2)cc1 [Example 12, N,N'-Bis(N-(4-aminomethylbenzamido)-4-aminobutyric)-p-xylylene diamide]  86 nM
10. NCc1cccc(CNC(=O)CCC(=O)NCc2cccc(CNC(=O)CCC(=O)NCc3cccc(CN)c3)c2)c1 [Example 11, N,N'-Bis(N-(3-aminomethylbenzyl)succinamido)-m-xylylene diamide]  127 nM
11. NCc1ccc(CNC(=O)CC(=O)NCc2ccc(CNC(=O)CC(=O)NCc3ccc(CN)cc3)cc2)cc1 [Example 9, N,N'-Bis(N-(4-aminomethylbenzl)-malonamido)-p-xylylene diamide]  150 nM
12. N=C(N)Nc1ccc(CNC(=O)[C@H](Cc2ccccc2)NC(=O)OCc2ccc(COC(=O)N[C@@H](Cc3ccccc3)C(=O)NCc3ccc(NC(=N)N)cc3)cc2)cc1 [Example 7]  227 nM
13. C[C@H](NC(=O)OCc1ccc(COC(=O)N[C@@H](C)C(=O)NCc2ccc(NC(=N)N)cc2)cc1)C(=O)NCc1ccc(NC(=N)N)cc1 [Example 5, Bis((4-guanidylbenzyl)-L-alanineamide-N^α -carbonyl)-1,4-dimethanolbenzene]  289 nM
14. C[C@@H](NC(=O)OCc1ccc(COC(=O)N[C@H](C)C(=O)NCc2ccc(NC(=N)N)cc2)cc1)C(=O)NCc1ccc(NC(=N)N)cc1 [Example 6]  364 nM
15. C[C@@H](NC(=O)OCc1ccc(COC(=O)N[C@H](C)C(=O)NCc2ccc(CN)cc2)cc1)C(=O)NCc1ccc(CN)cc1 [Example 14, Bis(p-xylylenediamine-D-alanine)-1,4-benzenedimethanol dicarbamate]  366 nM
16. NCc1ccc(C(=O)NCCNC(=O)OCc2ccc(COC(=O)NCCNC(=O)c3ccc(CN)cc3)cc2)cc1 [Example 16, N,N'-Bis(4-aminomethylbenzamidoethylene)-1,4-benzenedimethanol dicarbamate]  396 nM
17. N=C(N)Nc1ccc(CNC(=O)[C@@H]2CCCN2C(=O)OCc2ccc(COC(=O)N3CCC[C@H]3C(=O)NCc3ccc(NC(=N)N)cc3)cc2)cc1 [Example 4, Bis((4-quanidylbenzyl)-L-prolineamide-N^α -carbonyl)-1,4-dimethanolbenzene]  4000 nM
